The values below are quoted from earlier work in PMC2833348 (Bioorganic & medicinal chemistry letters, 2010).

This series relates to cell - cell fusion (CCF). The conditions noted are these: read-out: IC50 against cell - cell fusion (CCF).

The term IC50 denotes the concentration needed to halve the response being measured. Take `COc1ccc(S(=O)(=O)O)cc1/N=N/c1c(S(=O)(=O)O)cc2cc(Nc3nc(Nc4ccccc4)nc(Nc4cc(C)c(/N=N/c5cc(S(=O)(=O)O)cc6cc(S(=O)(=O)O)cc(O)c56)cc4OC)n3)ccc2c1O` [ADS-J1]: the concentration for half-maximal inhibition (IC50) was 4.2 µM.
